Data on 24 compounds can be found in US12060347B2 (BRISTOL-MYERS SQUIBB COMPANY, priority 2016, dated 2024).

Structures are written as SMILES.

For this assay, the target named is T1, human PAR4 (Homo sapiens, UniProt Q96RI0).
T1 construct: expressed in transfected cells; host or cells: HEK293 PAR4 Clone 1.2A (BMS Arctic ID 383940)
T1 sequence (Q96RI0 18-385): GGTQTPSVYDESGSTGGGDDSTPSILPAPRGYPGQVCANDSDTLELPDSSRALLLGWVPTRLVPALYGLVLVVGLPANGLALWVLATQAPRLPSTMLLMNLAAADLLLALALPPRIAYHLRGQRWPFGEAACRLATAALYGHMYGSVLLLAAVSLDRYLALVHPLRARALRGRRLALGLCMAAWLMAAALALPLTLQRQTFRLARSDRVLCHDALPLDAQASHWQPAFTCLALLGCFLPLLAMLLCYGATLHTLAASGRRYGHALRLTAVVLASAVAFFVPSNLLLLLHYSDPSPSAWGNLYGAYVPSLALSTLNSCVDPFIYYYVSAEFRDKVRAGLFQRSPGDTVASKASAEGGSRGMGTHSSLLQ
The experiment in a line: PAR4 FLIPR assay: antagonism of agonist-peptide-induced calcium mobilization in PAR4-expressing HEK293 cells. The assay is classed as cell-based. The note with it: H-Ala-Phe(4-F)-[…]NH2-induced intracellular calcium mobilization, 11-point curves.
On to `COc1cnc2c(-c3nc4cc(F)c(O[C@@H](C)[C@@H](C)OC(=O)Nc5ccnc(CCO)c5)nc4s3)cc(C)cc2n1` [Example 717, (2R,3S)-3-((6-fluoro-2-(2-methoxy-7-methylquinoxalin-5-yl)thiazolo[5,4-b]pyridin-5-yl)oxy)butan-2-yl (2-(2-hydroxyethyl)pyridin-4-yl)carbamate], for which the IC50 stood at 1.6 nM. Next, `COc1cnc2c(-c3nc4cc(F)c(O[C@@H](C)[C@@H](C)OC(=O)Nc5ccc(CC(C)(C)O)nc5)nc4s3)cc(C)cc2n1` [Example 718, (2R,3S)-3-((6-fluoro-2-(2-methoxy-7-methylquinoxalin-5-yl)thiazolo[5,4-b]pyridin-5-yl)oxy)butan-2-yl (6-(2-hydroxy-2-methylpropyl)pyridin-3-yl)carbamate]: 1.7 nM; `COc1cnc2c(-c3nc4cc(F)c(O[C@@H](C)[C@@H](C)OC(=O)Nc5ccnc(OCCO)c5)nc4s3)cc(C)cc2n1` [Example 719, (2R,3S)-3-((6-fluoro-2-(2-methoxy-7-methylquinoxalin-5-yl)thiazolo[5,4-b]pyridin-5-yl)oxy)butan-2-yl (2-(2-hydroxyethoxy)pyridin-4-yl)carbamate]: 1.7 nM; `COc1cnc2c(-c3nc4cc(F)c(O[C@@H](C)[C@@H](C)OC(=O)Nc5cnc(CCO)nc5)nc4s3)cc(C)cc2n1` [Example 720, (2R,3S)-3-((6-fluoro-2-(2-methoxy-7-methylquinoxalin-5-yl)thiazolo[5,4-b]pyridin-5-yl)oxy)butan-2-yl (2-(2-hydroxyethyl)pyrimidin-5-yl)carbamate]: 3.2 nM. With `COc1cnc2c(-c3nc4cc(F)c(O[C@@H](C)[C@@H](C)OC(=O)Nc5cnc(OCCO)nc5)nc4s3)cc(C)cc2n1` [Example 721, (2R,3S)-3-((6-fluoro-2-(2-methoxy-7-methylquinoxalin-5-yl)thiazolo[5,4-b]pyridin-5-yl)oxy)butan-2-yl (2-(2-hydroxyethoxy)pyrimidin-5-yl)carbamate], the IC50 is 2.6 nM. Then `COc1cnc2c(-c3nc4cc(F)c(O[C@@H](C)[C@@H](C)OC(=O)Nc5cnc(O[C@H](C)CO)nc5)nc4s3)cc(C)cc2n1` [Example 722, (2R,3S)-3-((6-fluoro-2-(2-methoxy-7-methylquinoxalin-5-yl)thiazolo[5,4-b]pyridin-5-yl)oxy)butan-2-yl (2-(((R)-1-hydroxypropan-2-yl)oxy)pyrimidin-5-yl)carbamate], with 1.4 nM; and `COc1cnc2c(-c3nc4cc(F)c(O[C@@H](C)[C@@H](C)OC(=O)Nc5ccnc(CO)c5)nc4s3)cc(C)cc2n1` [Example 723, (2R,3S)-3-((6-fluoro-2-(2-methoxy-7-methylquinoxalin-5-yl)thiazolo[5,4-b]pyridin-5-yl)oxy)butan-2-yl (2-(hydroxymethyl)pyridin-4-yl)carbamate], with 2.4 nM; and `COc1cnc2c(-c3nc4cc(F)c(O[C@@H](C)[C@@H](C)OC(=O)Nc5cnc(O[C@@H](C)CO)nc5)nc4s3)cc(C)cc2n1` [Example 724, (2R,3S)-3-((6-fluoro-2-(2-methoxy-7-methylquinoxalin-5-yl)thiazolo[5,4-b]pyridin-5-yl)oxy)butan-2-yl (2-(((S)-1-hydroxypropan-2-yl)oxy)pyrimidin-5-yl)carbamate], with 2.1 nM. As for `COc1cnc2c(-c3nc4cc(F)c(O[C@@H](C)[C@@H](C)OC(=O)Nc5ccc(OCCO)nc5)nc4s3)cc(C)cc2n1` [Example 725, (2R,3S)-3-((6-fluoro-2-(2-methoxy-7-methylquinoxalin-5-yl)thiazolo[5,4-b]pyridin-5-yl)oxy)butan-2-yl (6-(2-hydroxyethoxy)pyridin-3-yl)carbamate], the IC50 was 0.8 nM. Next, `COc1cnc2c(-c3nc4cc(F)c(O[C@@H](C)[C@@H](C)OC(=O)Nc5ccc(OCC(F)(F)CO)nc5)nc4s3)cc(C)cc2n1` [Example 726, (2R,3S)-3-((6-fluoro-2-(2-methoxy-7-methylquinoxalin-5-yl)thiazolo[5,4-b]pyridin-5-yl)oxy)butan-2-yl (6-(2,2-difluoro-3-hydroxypropoxy)pyridin-3-yl)carbamate]: 1.2 nM; `COc1cnc2c(-c3nc4cc(F)c(O[C@@H](C)[C@@H](C)OC(=O)Nc5ccnc(OCCC(C)(C)O)c5)nc4s3)cc(C)cc2n1` [Example 727, (2R,3S)-3-((6-fluoro-2-(2-methoxy-7-methylquinoxalin-5-yl)thiazolo[5,4-b]pyridin-5-yl)oxy)butan-2-yl (2-(3-hydroxy-3-methylbutoxy)pyridin-4-yl)carbamate]: 1.7 nM.

`COc1cnc2c(-c3nc4cc(F)c(O[C@@H](C)[C@@H](C)OC(=O)Nc5cnc(OC[C@H](C)O)nc5)nc4s3)cc(C)cc2n1` [Example 728, (2R,3S)-3-((6-fluoro-2-(2-methoxy-7-methylquinoxalin-5-yl)thiazolo[5,4-b]pyridin-5-yl)oxy)butan-2-yl (2-((S)-2-hydroxypropoxy)pyrimidin-5-yl)carbamate]: the IC50 turned out to be 2.4 nM. Then `COc1cnc2c(-c3nc4cc(F)c(O[C@@H](C)[C@@H](C)OC(=O)Nc5cnc(OC[C@@H](C)O)nc5)nc4s3)cc(C)cc2n1` [Example 729, (2R,3S)-3-((6-fluoro-2-(2-methoxy-7-methylquinoxalin-5-yl)thiazolo[5,4-b]pyridin-5-yl)oxy)butan-2-yl (2-((R)-2-hydroxypropoxy)pyrimidin-5-yl)carbamate], with 2.8 nM. Then `COc1cnc2c(-c3nc4cc(F)c(O[C@@H](C)[C@@H](C)OC(=O)Nc5cnc(OCCC(C)(C)O)nc5)nc4s3)cc(C)cc2n1` [Example 730, (2R,3S)-3-((6-fluoro-2-(2-methoxy-7-methylquinoxalin-5-yl)thiazolo[5,4-b]pyridin-5-yl)oxy)butan-2-yl (2-(3-hydroxy-3-methylbutoxy)pyrimidin-5-yl)carbamate], with 13 nM. Then `COc1cnc2c(-c3nc4cc(F)c(O[C@@H](C)[C@@H](C)OC(=O)Nc5cnc(C)nc5)nc4s3)cc(C)cc2n1` [Example 731, (2R,3S)-3-((6-fluoro-2-(2-methoxy-7-methylquinoxalin-5-yl)thiazolo[5,4-b]pyridin-5-yl)oxy)butan-2-yl (2-methylpyrimidin-5-yl)carbamate], with 0.9 nM; and `COc1cnc2c(-c3nc4c(C)cc(OC[C@@H](C)OC(=O)Nc5cccnc5)nc4s3)cc(C)cc2n1` [Example 733, (R)-1-((2-(2-methoxy-7-methylquinoxalin-5-yl)-7-methylthiazolo[5,4-b]pyridin-5-yl)oxy)propan-2-yl pyridin-3-ylcarbamate], with 1.1 nM; and `COc1cnc2c(-c3nc4c(C)cc(OC[C@@H](C)OC(=O)Nc5cnc(F)c(C)c5)nc4s3)cc(C)cc2n1` [Example 734, (R)-1-((2-(2-methoxy-7-methylquinoxalin-5-yl)-7-methylthiazolo[5,4-b]pyridin-5-yl)oxy) propan-2-yl (6-fluoro-5-methylpyridin-3-yl)carbamate], with 1 nM. Regarding `COc1cnc2c(-c3nc4c(C)cc(OC[C@@H](C)OC(=O)Nc5cncc(C#N)c5)nc4s3)cc(C)cc2n1` [Example 735, (R)-1-((2-(2-methoxy-7-methylquinoxalin-5-yl)-7-methylthiazolo[5,4-b]pyridin-5-yl)oxy) propan-2-yl (5-cyanopyridin-3-yl)carbamate], the IC50 was 1.1 nM. Then `COc1cnc2c(-c3nc4c(C)cc(OC[C@@H](C)OC(=O)Nc5cnc(Cl)nc5)nc4s3)cc(C)cc2n1` [Example 736, (R)-1-((2-(2-methoxy-7-methylquinoxalin-5-yl)-7-methylthiazolo[5,4-b]pyridin-5-yl)oxy) propan-2-yl (2-chloropyrimidin-5-yl)carbamate], with 5.3 nM. On to `COc1cnc2c(-c3nc4c(C)cc(OC[C@@H](C)OC(=O)Nc5cnc(C)nc5)nc4s3)cc(C)cc2n1` [Example 737, (R)-1-((2-(2-methoxy-7-methylquinoxalin-5-yl)-7-methylthiazolo[5,4-b]pyridin-5-yl)oxy) propan-2-yl (2-methylpyrimidin-5-yl)carbamate], for which the IC50 came to 8.1 nM. As to `COc1cnc2c(-c3nc4c(C)cc(OC[C@@H](C)OC(=O)Nc5cnc(OC)nc5)nc4s3)cc(C)cc2n1` [Example 738, (R)-1-((2-(2-methoxy-7-methylquinoxalin-5-yl)-7-methylthiazolo[5,4-b]pyridin-5-yl)oxy) propan-2-yl (2-methoxypyrimidin-5-yl)carbamate], the IC50 is 10 nM. For `COc1cnc2c(-c3nc4cc(F)c(OC[C@@H](C)OC(=O)Nc5ccc(C(=O)NCC(C)(C)O)nc5)nc4s3)cc(C)cc2n1` [Example 741, (R)-1-((6-fluoro-2-(2-methoxy-7-methylquinoxalin-5-yl)thiazolo[5,4-b]pyridin-5-yl)oxy) propan-2-yl (6-((2-hydroxy-2-methylpropyl)carbamoyl)pyridin-3-yl)carbamate], the IC50 was found to be 2.1 nM.

Turning to `COc1cnc2c(-c3nc4cc(F)c(OC[C@@H](C)OC(=O)Nc5ccc(C(=O)NC[C@@H](C)O)nc5)nc4s3)cc(C)cc2n1` [Example 747, (R)-1-((6-fluoro-2-(2-methoxy-7-methylquinoxalin-5-yl)thiazolo[5,4-b]pyridin-5-yl)oxy) propan-2-yl (6-(((R)-2-hydroxypropyl)carbamoyl)pyridin-3-yl)carbamate], the IC50 turned out to be 2.4 nM. Then `COc1cnc2c(-c3nc4cc(F)c(OC[C@@H](C)OC(=O)Nc5ccc(C(=O)NC[C@H](C)O)nc5)nc4s3)cc(C)cc2n1` [Example 748, (R)-1-((6-fluoro-2-(2-methoxy-7-methylquinoxalin-5-yl)thiazolo[5,4-b]pyridin-5-yl)oxy) propan-2-yl (6-(((S)-2-hydroxypropyl)carbamoyl)pyridin-3-yl)carbamate], with 2.9 nM.

One may read the IC50 as the concentration needed to halve the response being measured.
